Assay [1] has as its system HIV Env-mediated cell fusion. Description: vaccinia virus-based reporter gene assay of HIV Env-mediated cell fusion (B-SC-1 target and effector cells, soluble CD4). Set-up: species or system HIV-1. The settings on record: relative to both N35CCG-N13 and NCCG-gp41. In general terms: Reporter assays use an easily measured gene product as a stand-in for the process of interest.

Assay [2] deals with HIV-1 (LAV) Env protein on effector cells (gp120/gp41; gp41 pre-hairpin fusion intermediate) (HIV-1 (LAV)) (UniProt P03377). Briefly: cell-based or functional assay.
In assay [3] the test system is HIV-1 Env. The following applies: from Ferrer et al., Nature Struct. Biol. 1999, given for comparison; read-out: IC50, fusion inhibitory activity; cited from earlier work.
In assay [4] the target is HIV-1 (LAV) Env protein on effector cells (gp120/gp41; gp41 pre-hairpin fusion intermediate) (HIV-1 (LAV), UniProt P03377 517-861). Briefly: cell-based or functional assay.

Regarding “N34CCG (MGSSHHHHHHSSGLVPRGSHMSGIVQQQNNLLRAIEAQQHLLQLTVWGIKQCCGR)”, the “fold lower inhibitory activity” value in assay [1] is 5-6 fold. Take “N36 peptide (residues 546-581 of HIV-1 Env) (from UniProt P04578 546-581)”: the IC50, inhibition of HIV-1 Env-mediated cell fusion (vaccinia reporter gene assay, beta-galactosidase) in assay [2] turned out to be 16.4 µM. In the case of enfuvirtide, the IC50 (in general, the concentration that gives 50% inhibition) in assay [3] was roughly 50 nM.

B1: 6H-N34CCG, disulfide-linked trimer (designed binder)
chain: MGSSHHHHHHSSGLVPRGSHMSGIVQQQNNLLRAIEAQQHLLQLTVWGIKQCCGR
In the case of B1, the “IC50, inhibition of HIV Env-mediated cell fusion (vaccinia reporter gene assay, beta-galactosidase)” value in assay [4] was found to be 96 nM.

(Values after US20060165715A1, “Gp41 inhibitor” (priority 2001, published 2006).)
